These results are taken from patent US8183238B2, “Bicyclic and tricyclic compounds as KAT II inhibitors” (priority 2009, dated 2012).

A short description of series [1]: Prodrug in vivo pharmacokinetics in dogs (plasma, LC-MS-MS). Set-up: species or system Dog (Beagle). The settings on record: for AUC / Cmax / Tmax / half-life: Beagle, dog, plasma; for F: calculated using IV AUC of 497 ng · h/mL. The protocol:
Test substances (Examples 4 and 71-73) were administered by oral gavage to groups of two dogs. Example 71 was also administered intravenously.
Blood samples were taken at various times after administration and submitted to analysis for the parent drug (Example 71) and pro-drug (Examples 72 and 73) using an LC-MS-MS assay. Pharmacokinetic parameters derived from the plasma analytical data were determined using Watson LIMS 7.2.003 (Thermo Fisher Scientific, Waltham, Mass.). The results are given in FIG. 1 and Tables 8, 9, 10, and 11.

A short description of series [2]: Prodrug in vivo pharmacokinetics in monkeys (plasma, LC-MS-MS). The settings on record: monkeys, oral gavage of Example 72, all time points. Also on record: species or system Monkey (Cynomolgus). The protocol: Test substances (Examples 4 and 71-73) were administered by oral gavage to groups of two monkeys.
Blood samples were taken at various times after administration and submitted to analysis for the parent drug (Example 4 and Example 71) and pro-drug (Examples 72 and 73) using an LC-MS-MS assay. […] Pharmacokinetic parameters derived from the plasma analytical data were determined using Watson LIMS 7.2.003 (Thermo Fisher Scientific, Waltham, Mass.). The results are given in FIG. 2 and Tables 13, 14, and 15.

The target of series [3] is human KAT II (hKAT II) enzyme (Homo sapiens, UniProt Q8N5Z0). The series is described as follows: KAT II Inhibition Spectra Assay. The series is classed as biochemical. Conditions: Table 6; hKAT II, decrease in OD370, 37° C., 15-20 h; read-out: KATII IC50. The procedure, abridged: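 hKAT II (15 nM, 3× stock) converts L-kynurenine (3 mM, 3× stock) with α-ketoglutarate and PLP in Tris acetate; 15–20 h at 37 °C. Inhibition of the OD370 decrease read versus DMSO wells across a concentration range gives IC50.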

[4] abbreviates: po, 1 mg/kg, Example 72 in dog plasma after oral Example 72 (1 mg/kg active), Dog 1.
Setting [5] is: po, 1 mg/kg, Example 72 in dog plasma after oral Example 72 (1 mg/kg active), Dog 2.
Where [6] appears, read: po, 1 mg/kg, Example 72 in dog plasma after oral Example 72 (1 mg/kg active), Mean.
Setting [7] is: Example 72 in dog plasma after oral Example 72 (1 mg/kg active), Dog 1.
Setting [8] is: Example 72 in dog plasma after oral Example 72 (1 mg/kg active), Dog 2.
[9] abbreviates: Example 72 in dog plasma after oral Example 72 (1 mg/kg active), Mean.

The AUC is the area under the concentration-time curve, a measure of exposure. A word on the Cmax: it is the maximum level reached in the sampled fluid or tissue. By Tmax is commonly meant the time from dosing to the highest level. As a reminder, the half-life is how long it takes for the measured level to halve. As usually defined, the pIC50 is −log10 of the IC50, conventionally taken in molar units.

Molecules are shown by their SMILES. pIC50: −log10 of the molar value. Where a name gives a salt, the structure may show the parent alone. Read-outs that look alike come from different tables or passages of the source.

human KAT II (hKAT II) enzyme, sequence (Q8N5Z0 30-425): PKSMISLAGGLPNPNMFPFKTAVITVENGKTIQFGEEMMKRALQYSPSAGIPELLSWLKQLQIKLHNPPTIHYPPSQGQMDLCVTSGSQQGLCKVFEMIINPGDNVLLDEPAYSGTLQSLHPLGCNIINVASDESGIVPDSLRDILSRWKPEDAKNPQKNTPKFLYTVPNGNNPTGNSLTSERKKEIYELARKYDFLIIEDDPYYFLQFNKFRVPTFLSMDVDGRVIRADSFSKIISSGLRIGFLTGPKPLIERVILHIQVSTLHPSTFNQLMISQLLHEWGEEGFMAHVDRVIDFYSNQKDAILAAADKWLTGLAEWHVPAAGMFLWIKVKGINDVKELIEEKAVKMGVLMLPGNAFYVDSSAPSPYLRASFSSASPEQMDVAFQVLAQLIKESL

For `CN(C)C(=O)ON1C(=O)[C@@H](N)Cc2cc(Oc3ccccc3)ccc21` [Example 72, (3S)-3-amino-1-[(dimethylcarbamoyl)oxy]-6-phenoxy-3,4-dihydroquinolin-2(1H)-one], the AUC is 497 ng·h/mL in series [1] (iv, 0.47 mg/kg, exposure of Example 72 in dogs following intravenous administration of Example 72 at 0.47 mg/kg, read-out: AUC); 402 ng·h/mL in series [1] (po, 1 mg/kg, Example 72 in dog plasma after oral Example 72 (1 mg/kg active), Dog 1, read-out: AUC); 455 ng·h/mL in series [1] (po, 1 mg/kg, Example 72 in dog plasma after oral Example 72 (1 mg/kg active), Dog 1, read-out: AUC Extrap); 721 ng·h/mL in series [1] (po, 1 mg/kg, Example 72 in dog plasma after oral Example 72 (1 mg/kg active), Dog 2, read-out: AUC); 790 ng·h/mL in series [1] (po, 1 mg/kg, Example 72 in dog plasma after oral Example 72 (1 mg/kg active), Dog 2, read-out: AUC Extrap); 562 ng·h/mL in series [1] (po, 1 mg/kg, Example 72 in dog plasma after oral Example 72 (1 mg/kg active), Mean, read-out: AUC). Also, in series [1] (po, 1 mg/kg, Example 72 in dog plasma after oral Example 72 (1 mg/kg active), Mean, read-out: AUC Extrap), the area under the curve (AUC) was 623 ng·h/mL. Also, the peak concentration (Cmax) in series [1] (setting [4]) turned out to be 142 ng/mL; in series [1] (setting [5]), 248 ng/mL; in series [1] (setting [6]), 195 ng/mL. The Tmax worked out at 0.5 h in series [1] (setting [4]), 1 h in series [1] (setting [5]) and 0.75 h in series [1] (setting [6]). In addition, the results for the half-life in series [1] (setting [4]), in series [1] (setting [5]) and in series [1] (setting [6]) were 2.31 h, 1.94 h and 2.13 h, respectively. Moreover, the “% AUC Extrap” value is given as 11.7% in series [1] (setting [7]), 8.77% in series [1] (setting [8]) and 10.2% in series [1] (setting [9]). Besides, the F in series [1] (setting [7]) is 38%; in series [1] (setting [8]) it was 54%; in series [1] (setting [9]), 46%. Besides, the “Plasma levels of Example 72” value in series [2] was “below the limit of quantitation”.
For `N[C@H]1Cc2cc(Oc3cc(F)cc(C(F)(F)F)c3)ccc2N(O)C1=O` [Example 166, (3S)-3-amino-6-[3-fluoro-5-(trifluoromethyl)phenoxy]-1-hydroxy-3,4-dihydroquinolin-2(1H)-one, trifluoroacetate salt], the pIC50 in series [3] is 6.89.
For `N[C@H]1Cc2cc(Oc3ccc(Cl)c(F)c3)ccc2N(O)C1=O` [Example 167, (3S)-3-amino-6-(4-chloro-3-fluorophenoxy)-1-hydroxy-3,4-dihydroquinolin-2(1H)-one, trifluoroacetate salt], the negative logarithm of the IC50 (pIC50) in series [3] was 6.98.
Same read-out and setting: as for `N[C@H]1Cc2cc(Oc3cc(F)cc(Cl)c3)ccc2N(O)C1=O` [Example 168, (3S)-3-amino-6-(3-chloro-5-fluorophenoxy)-1-hydroxy-3,4-dihydroquinolin-2(1H)-one, trifluoroacetate salt], the figure is 7.27; as for `N[C@H]1Cc2cc(Oc3cccc(OC(F)(F)F)c3)ccc2N(O)C1=O` [Example 169, (3S)-3-amino-1-hydroxy-6-[3-(trifluoromethoxy)phenoxy]-3,4-dihydroquinolin-2(1H)-one, trifluoroacetate salt], 6.91.
Turning to `N[C@H]1Cc2cc(Oc3cncc(Cl)c3)ccc2N(O)C1=O` [Example 170, (3S)-3-amino-6-[(5-chloropyridin-3-yl)oxy]-1-hydroxy-3,4-dihydroquinolin-2(1H)-one, ammonium salt], in series [3], the pIC50 is 7.54.
Consider `COc1ccc(Oc2ccc3c(c2)CC(N)C(=O)N3O)cn1` (centres unmarked) [Example 171, 3-amino-1-hydroxy-6-[(6-methoxypyridin-3-yl)oxy]-3,4-dihydroquinolin-2(1H)-one, ammonium salt], for which, in series [3], the pIC50 was 7.37.
